Data on one sequence can be found in ChEMBL document CHEMBL5226321, “Ivermectin: A Promising Therapeutic for Fighting Malaria. Current Status and Perspective” (J Med Chem, 2021).

Type in all cases: functional, organism-based
The test system of experiment [1] is Anopheles stephensi. Put plainly: Insecticidal in Anopheles stephensi assessed as mortality rate fed with blood of compound treated mouse at […], sc before 12 hrs and observed after 36 hrs relative to control.
Experiment [2] has as its system Anopheles sp. Put plainly: Insecticidal in Anopheles sp. assessed as mortality rate fed with blood of compound treated dog at 10 to 2500 microg/kg observed after 48 hrs relative to control. The note with it: dose 10-2500 µg/kg.
Experiment [3] deals with Anopheles stephensi. Put plainly: Insecticidal in Anopheles stephensi assessed as lethal concentration membrane-fed with compound treated blood.
Experiment [4] relates to Anopheles sp. Put plainly: Insecticidal in Anopheles sp. assessed as mortality rate fed with blood of compound treated human at 200 microg/kg administered once caught on day 1 after mass drug administration observed within 5 days relative to control. The following applies: dose 200.0 µg/kg, time 5.0 day.
In the next experiment the test system is Aedes aegypti. Nature of the experiment: Insecticidal in Aedes aegypti assessed as reduction in survivorship fed with blood of compound treated human at 150 microg/kg administered once. The following applies: dose 150.0 µg/kg.
For experiment [5], the system named is Anopheles gambiae. Put plainly: Insecticidal in Anopheles gambiae assessed as probability of survival per day fed with blood of compound treated human at 150 microg/kg observed for 6 days relative to control. The note with it: dose 150.0 µg/kg, time 6.0 day.
For experiment [6], the system named is Anopheles sp. Put plainly: Insecticidal in Anopheles sp. assessed as mortality rate fed with blood of compound treated human at 250 microg/kg administered once and observed for 3 days relative to control. The note with it: dose 250.0 µg/kg, time 3.0 day.
The subject of experiment [7] is Anopheles sp. Nature of the experiment: Insecticidal in Anopheles sp. assessed as mortality fed with compound treated human blood at 400 microg/kg in the presence of 6 mg/kg diethylcarbamazine citrate died in 9 days relative to control. The following applies: dose 400.0 µg/kg, time 9.0 day.
The subject of experiment [8] is Anopheles sp. Nature of the experiment: Insecticidal in Anopheles sp. infected with Plasmodium falciparum gametocytes assessed as reduction in survival fed with compound treated bovine blood at 200 microg/kg feeding at 15 days after injection relative to control. The following applies: dose 200.0 µg/kg.
Experiment [9] concerns Anopheles sp. Put plainly: Insecticidal in Anopheles sp. infected with Plasmodium falciparum gametocytes assessed as survival fed with compound treated bovine blood at 200 microg/kg feeding at 2 weeks after injection. The following applies: dose 200.0 µg/kg.
Experiment [10] concerns Anopheles gambiae. Nature of the experiment: Insecticidal in Anopheles gambiae assessed as mortality fed with compound treated pig plasma at 20 ng/mL observed for 10 days relative to control. The note with it: time 10.0 day.

Take IVERMECTIN: the mortality was 100% in the experiment with Anopheles stephensi [1]; 90% with Anopheles sp. [2]; 75% in the experiment on Anopheles sp. [4]; 80% with Anopheles sp. [6]; 100% in the experiment with Anopheles sp. [7]; 50% in the experiment with Anopheles gambiae [10]. For the same sequence, the MLC in the experiment on Anopheles stephensi [3] stood at 1 ppm. Besides, the LC50 with Aedes aegypti stood at 0.601 µg/mL. Further, the Survival in the experiment on Anopheles gambiae [5] was above 10%; in the experiment on Anopheles sp. [8] it was 77%; with Anopheles sp. [9], 2 days.
